Test results taken from PubChem BioAssay AID743132 (The Scripps Research Institute Molecular Screening Center, 2013).
Calls of active or inactive are those of the source.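 How the source made its calls: active means compounds blocking probe labeling of mouse brain LYPLA1 and LYPLA2 with IC50 at most 1000 nM; inactive means IC50 above 1000 nM.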

Tests used:
Assay in all cases: mouse brain serine hydrolase inhibitor potency by ABPP – cell lysate, mouse brain membrane proteome, fluorescence gel, selectivity assay for LYPLA1/LYPLA2 inhibitor project, late-stage follow-up (AID 743132)
[1] = molecular target: Acyl-protein thioesterase 1 (Mus musculus) (UniProt P97823); conditions: gel-based ABPP FP-Rh fluorescence, LYPLA1/2
[2] = molecular target: Monoacylglycerol lipase ABHD6 (Mus musculus) (UniProt Q8R2Y0); conditions: gel-based ABPP FP-Rh fluorescence
[3] = molecular target: FAAH; conditions: gel-based ABPP FP-Rh fluorescence

Sequence of Acyl-protein thioesterase 1 (Mus musculus) (P97823 whole entry, looked up): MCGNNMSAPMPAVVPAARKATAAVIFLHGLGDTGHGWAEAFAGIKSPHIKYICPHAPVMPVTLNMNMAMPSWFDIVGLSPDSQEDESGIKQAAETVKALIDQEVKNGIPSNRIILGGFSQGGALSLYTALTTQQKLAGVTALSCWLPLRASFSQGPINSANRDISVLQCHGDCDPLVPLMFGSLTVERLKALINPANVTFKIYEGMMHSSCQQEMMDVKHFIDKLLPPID
Sequence of Monoacylglycerol lipase ABHD6 (Mus musculus) (Q8R2Y0 whole entry, looked up): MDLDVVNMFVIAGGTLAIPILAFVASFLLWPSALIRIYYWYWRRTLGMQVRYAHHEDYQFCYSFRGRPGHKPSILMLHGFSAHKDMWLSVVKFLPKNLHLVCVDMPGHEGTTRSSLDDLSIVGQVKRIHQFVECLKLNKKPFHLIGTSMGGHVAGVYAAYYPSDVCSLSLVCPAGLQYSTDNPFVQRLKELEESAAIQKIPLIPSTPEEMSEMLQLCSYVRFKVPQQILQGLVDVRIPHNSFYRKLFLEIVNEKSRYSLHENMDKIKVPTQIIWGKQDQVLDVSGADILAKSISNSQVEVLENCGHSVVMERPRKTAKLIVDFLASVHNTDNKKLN

IC50 [1]: 0.154 µM
IC50 [2]: 0.00315 µM
IC50 [3]: inactive
SMILES: O=C(ON1C(=O)C2CN(C(=O)N3CCOCC3)CCN2C1=O)N1CCC(CCc2ccc(Cl)cc2)CC1 (stereo not drawn)
